Measurements as given in patent US5149716A, “Insulin derivatives, process for their preparation, their use and a pharmaceutical preparation containing them” (Hoechst Aktiengesellschaft, priority 1989, dated 1992).

Legend:
[1] = Subcutaneous administration of a crystal suspension; format: in vivo
fasting male rabbits = test: Hypoglycemic action after intravenous administration; format: in vivo, rabbit; details: i.v.; for Change in blood glucose from starting value: 6.25 microliters/kg of 2.2 mg in 1.5 ml 0.9% NaCl, 5 fasting male rabbits
Procedure: 2.2 mg of anhydrous (A-1)Thr--(AO)Arg--(B30)Des--Thr human insulin were taken up in 1.5 ml of 0.9% strength NaCl solution. 2.2 mg of human insulin, also in 1.5 ml of physiological saline solution, were used as comparison and standard substance. 6.25 microliters of sample solution/kg of live weight were in each case intravenously administered to 5 fasting male rabbits having mean weights of 3.1 kg. 6.25 microliters of standard solution per kg were likewise administered i.v. to 5 other animals. After various times, blood samples were taken and examined for blood sugar concentrations. Within the limits of error, the following measurement results were found: […]

[2] = measured by isoelectric focusing; prior art (European Patent 132,769 and 132,770); cited from earlier work

Substance	action profile [1]	Change in blood glucose from starting value (fasting male rabbits; 1/2 h)	Change in blood glucose from starting value (fasting male rabbits; 1 h)	Change in blood glucose from starting value (fasting male rabbits; 2 h)	Change in blood glucose from starting value (fasting male rabbits; 3 h)	hypoglycemic action (fasting male rabbits; rabbits, compared with human insulin)	Change in blood glucose from starting value (fasting male rabbits; 4 h)	isoelectric point [2]
(A-1)Thr--(AO)Arg--(B30)Des--Thr human insulin [(A-1)Thr-(AO)-Arg-(B30)Des-Thr insulin]	acts in a sustained manner	-31%	-31%	-20%	-3%	of the same order of magnitude as that of the (unmodified) human insulin	–	–
human insulin	–	-28%	-27%	-18%	-11%	–	-6%	–
native insulin: unmodified native insulin	–	–	–	–	–	–	–	5.4
proinsulin	–	–	–	–	–	–	–	5.4
